In one assay the test system is AMPKα. As to the kind of experiment: Streptavidin agarose affinity assay. The format is binding, human. The settings on record: Bio-Eth (4 μM) with or without Eth (12 μM), 3 h. On the procedure:
Cell pellets were lysed and the supernatant collection was incubated with indicated antibodies overnight at 4°C, after which protein A/G Plus beads (Santa Cruz Biotechnology) were added and incubated at 4°C for 4 h. The beads were washed 4 times in NETN buffer (1% NP-40, 2 mM EDTA, 40 mM Tris-HCl, 137 mM NaCl, pH 7.4), resuspended in SDS-PAGE loading buffer and boiled for 5 min. For streptavidin agarose affinity assay, cells upon Bio-Eth were lysed; the lysates were incubated with streptavidin agarose, washed and boiled in SDS-PAGE loading buffer. […] Western blot assays were performed.
Figure 4 Eth is a direct activator of AMPK. (A): MCF-7, MDA-MB-231, or MDA-MB-436 cells were treated with increasing concentrations of Eth for 24 h, and AMPK activity assay was performed. (B): The binding mode of Eth docked into AMPK. (C): The binding mode of Eth docked into AMPK. α subunit is green, β subunit is cyan, γ subunit is magenta and Eth is gold. (D): Details of the binding site of Eth in the ADaM site of AMPK. The main residues involved in drug interactions are shown as labeled green sticks. α subunit is green, β subunit is cyan. The pSER-108 was shown in stick and colored by gold. (E) The interaction pattern of Eth with the residues. […] (H): Viability of MCF-7, MDA-MB-231 or MDA-MB-436 cells exposed to Biotin-Eth as determined by MTT assay. […]

The test system of assay [1] is AMPK/mTORC1 signaling in MCF-7, MDA-MB-231, and MDA-MB-436 cells. As to the kind of experiment: Western blot of AMPK/mTORC1 signaling. The class given is cell-based, human. The following applies: western blot. How it is done:
Cells were lysed in radioimmunoprecipitation assay buffer containing 50 mM Tris, pH 8.0, 150 mM NaCl, 0.1% SDS, 0.5% sodium deoxycholate, 1% NP-40, 1 mM DTT, 1 mM NaF, 1 mM sodium orthovanadate, 1 mM phenylmethylsulfonyl fluoride (PMSF; Sigma-Aldrich; Merck KGaA), and 1% protease inhibitors cocktail (EMD Millipore, Billerica, MA, USA). Protein concentration was determined using the Bradford method. Equal amounts of sample (25 µg) were separated by SDS-PAGE (8–12% gels). Electrophoresed proteins were then transferred onto polyvinylidene fluoride membranes (EMD Millipore, Billerica, MA, USA). The membranes were blocked with 5% skimmed milk in Tris-buffered saline at room temperature for 1 h. Following blocking, membranes were incubated overnight at 4°C with primary antibodies and then rinsed with Tris-buffered saline with Tween 20. The following primary antibodies were used: anti-Glut3 (1:500; catalog no. sc-74399) (Santa Cruz Biotechnology, Inc., Dallas, TX, USA); anti-LC3 (1:1000; catalog no. 12741), anti-AMPKα (1:1000; catalog no. 2532), anti-phospho-AMPKα (Thr172) (1:1000; catalog no. 2535), anti-phospho-AMPKβ1 (Ser108) (1:1000; catalog no. 4181), anti-AMPKγ1 (1:1000; catalog no. 4187), anti-mTOR (1:1000; catalog no. 2983), anti-phospho-mTOR (Ser2448) (1:1000; catalog no. 5536), anti-P70S6K (1:1000; catalog no. 9202), anti-phospho-P70S6K (Thr389) (1:1000; catalog no. 92775), anti-4E-BP1 (1:1000; catalog no. 9234), anti-phospho-4E-BP1 (Thr37/46) (1:1000; catalog no. 2855), anti-ACC (1:1000; catalog no. 3676), anti-phospho-ACC ([…]) (1:1000; catalog no. 11818), anti-Glut1 (1:1000; catalog no. 12939), anti-Glut4 (1:1000; catalog no. 2213) (All Cell Signaling Technology, Inc., Danvers, MA, USA), and anti-GAPDH (1:5000; catalog no. M20006; Abmart, Shanghai, China). Membranes were then washed, and incubated with horseradish peroxidase-conjugated secondary antibody (1:10000; E030120-01 and E030110-01; EarthOx, LLC, San Francisco, CA, USA) for 1.5 h at room temperature. The protein bands were visualized using SuperSignal® West Pico PLUS Chemiluminescent substrate (catalog no. 34579; Pierce; Thermo Fisher Scientific, Inc., Rockford, IL, USA) ([Zhang et al., 2018]).
Figure 3 Eth induces autophagy through the AMPK/mTORC1 signaling. (A): MCF-7, MDA-MB-231, or MDA-MB-436 cells were treated with increasing concentrations of Eth for 24 h. Western blot was performed using antibodies indicated. […] (D): MDA-MB-231 or MDA-MB-436 cells transfected with pQCXIP-GFP-LC3 plasmid were treated with Eth (2.0 µM) and/or CC (25 µM) for 24 h, and assessed by immunoﬂuorescence analyses. […] (G): MDA-MB-231 or MDA-MB-436 cells transfected with pQCXIP-GFP-LC3 plasmid were treated with Eth (1.0 µM or 1.6 µM) and/or Met (10 mM) for 24 h, and assessed by immunoﬂuorescence analyses. […]
In general terms: Immunoblotting shows a protein as a band on a membrane.

For `CCOC1c2c(ccc3c2OCO3)-c2ccc3cc4c(cc3c2N1C)OCO4` (stereo not drawn) [Eth, Ethoxysanguinarine], the “binding of Bio-Eth to AMPKα in presence of unlabeled Eth” value in the assay on AMPKα is on record as “significantly attenuated by unlabeled Eth”. Besides, in assay [1], the “phosphorylation of mTORC1 effectors (mTOR, p70S6K, and 4EBP1)” value is listed as “decreased the phosphorylation of mTORC1 effectors”. In addition, the “phosphorylation of AMPKα at Thr172” value in assay [1] (dose- and time-dependent) is on record as “increased”.

The values above are taken from publication PMC6960228, “Ethoxysanguinarine, a Novel Direct Activator of AMP-Activated Protein Kinase, Induces Autophagy and Exhibits Therapeutic Potential in Breast Cancer Cells” (Frontiers in Pharmacology, 2020).
